pKi: −log10 of the molar value. Read-outs that look alike come from different tables or passages of the source.
Key:
5-HT1A = target: T1, 5-HT1A (Sus scrofa, UniProt A0A4X1UTF5); test: radioligand binding assay, serotonin 5-HT1A receptor, [3H]WAY 100635
T1 construct: membrane preparations from porcine cortex; from tissue; host or cells: porcine cortex
T1 sequence (A0A4X1UTF5 1-422): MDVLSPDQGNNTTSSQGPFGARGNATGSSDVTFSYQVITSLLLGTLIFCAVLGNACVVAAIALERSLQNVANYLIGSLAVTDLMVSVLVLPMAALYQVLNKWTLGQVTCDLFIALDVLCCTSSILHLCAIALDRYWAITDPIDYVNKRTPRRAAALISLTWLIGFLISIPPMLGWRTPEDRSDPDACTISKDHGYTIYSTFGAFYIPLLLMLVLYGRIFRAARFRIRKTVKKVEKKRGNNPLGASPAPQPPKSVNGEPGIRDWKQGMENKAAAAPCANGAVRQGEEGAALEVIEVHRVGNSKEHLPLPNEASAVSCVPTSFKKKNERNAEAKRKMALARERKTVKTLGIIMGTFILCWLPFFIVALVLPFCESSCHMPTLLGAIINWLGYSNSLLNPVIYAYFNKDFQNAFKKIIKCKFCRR
Experimental: (§1) The investigation of receptor binding to the serotonin and adrenergic receptors was done according to a published procedure (Heindl, C. et al., Tetrahedron: Asymmetry (2003), 14, 3141-3152). In detail, for the determination of the binding properties to serotonin receptors membrane preparations from porcine cortex was incubated with the 5-HT1A selective radioligand [^3H]WAY 100635 or with the 5-HT2 selective compound [^3H]ketanserin. The measurement of alpha-1 and alpha-2 receptor binding was achieved when utilizing porcine cortical membranes and the selective radioligands [^3H]prazosin (for alpha-1) and [^3H]RX821002 in an assay similar to that described above.
(§2) The results of the binding experiments are summarized in Table 1 as mean values of two to five individual experiments each done in triplicate and expressed as Ki values in nM.

5-HT2 = target: T2, 5-HT2 (Sus scrofa, UniProt P50129); test: radioligand binding assay, serotonin 5-HT2 receptor, [3H]ketanserin; set-up: species or system porcine
T2 construct: membrane preparations from porcine cortex; from tissue; host or cells: porcine cortex
T2 sequence (P50129 whole entry): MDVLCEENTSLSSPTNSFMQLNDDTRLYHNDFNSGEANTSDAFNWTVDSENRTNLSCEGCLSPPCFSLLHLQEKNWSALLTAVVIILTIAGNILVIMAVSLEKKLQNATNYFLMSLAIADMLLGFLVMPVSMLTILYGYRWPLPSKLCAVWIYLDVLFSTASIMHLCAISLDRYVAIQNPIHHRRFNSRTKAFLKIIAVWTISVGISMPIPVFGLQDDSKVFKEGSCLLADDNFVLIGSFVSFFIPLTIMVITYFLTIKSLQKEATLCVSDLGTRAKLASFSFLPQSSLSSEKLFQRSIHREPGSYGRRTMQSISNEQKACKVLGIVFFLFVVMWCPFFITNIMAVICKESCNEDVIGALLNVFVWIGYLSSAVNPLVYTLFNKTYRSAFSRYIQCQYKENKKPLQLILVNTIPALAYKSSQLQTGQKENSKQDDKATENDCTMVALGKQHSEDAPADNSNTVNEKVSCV

human D3 = human D3 (Homo sapiens, UniProt P35462); test: radioligand binding assay, dopamine D3 receptor, [3H]spiperone
Sequence of human D3 (P35462 whole entry): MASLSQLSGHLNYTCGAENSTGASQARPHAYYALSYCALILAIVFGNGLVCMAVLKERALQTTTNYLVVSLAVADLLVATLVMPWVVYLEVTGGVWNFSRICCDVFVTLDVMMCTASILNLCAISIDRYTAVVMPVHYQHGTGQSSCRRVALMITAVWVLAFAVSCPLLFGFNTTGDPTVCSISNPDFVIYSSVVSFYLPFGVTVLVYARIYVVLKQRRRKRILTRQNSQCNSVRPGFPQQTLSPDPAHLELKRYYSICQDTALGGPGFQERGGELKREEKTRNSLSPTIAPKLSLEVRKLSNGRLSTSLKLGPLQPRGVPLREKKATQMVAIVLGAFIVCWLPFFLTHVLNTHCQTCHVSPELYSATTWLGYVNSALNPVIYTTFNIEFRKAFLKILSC
Experimental: (§3) These experiments have been done according to methods which are described in literature (Hübner, H. et al., J. Med. Chem. (2000), 43, 7562). For the determination of binding affinity to the receptors of the dopamine D2 family membranes were established carrying the human D2long, D2short, D3 or D4.4 receptor subtype stably expressed in Chinese hamster ovary cell lines. In principle, the binding experiments started when incubating an appropriate amount of membrane with the radioligand [^3H]spiperone and the particular test compounds used in a wide range of different concentrations from subnanomolar up to micromolar ones.

human D2long, D2short = human D2long, D2short (Homo sapiens, UniProt P14416); test: biochemical; format: binding
Sequence of human D2long, D2short (P14416 whole entry): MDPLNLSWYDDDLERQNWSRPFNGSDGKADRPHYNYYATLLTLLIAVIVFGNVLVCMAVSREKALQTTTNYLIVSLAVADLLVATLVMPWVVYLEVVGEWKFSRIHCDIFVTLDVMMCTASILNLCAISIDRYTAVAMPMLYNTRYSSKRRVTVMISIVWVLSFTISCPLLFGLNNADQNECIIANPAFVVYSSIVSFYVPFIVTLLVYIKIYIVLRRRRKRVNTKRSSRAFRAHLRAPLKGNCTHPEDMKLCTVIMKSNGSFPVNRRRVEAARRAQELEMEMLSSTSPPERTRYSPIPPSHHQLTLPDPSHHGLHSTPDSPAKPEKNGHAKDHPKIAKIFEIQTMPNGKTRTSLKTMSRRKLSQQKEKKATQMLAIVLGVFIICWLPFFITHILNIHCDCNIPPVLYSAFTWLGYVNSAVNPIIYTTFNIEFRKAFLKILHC
Experimental: as §3

dopamine D1 receptor = target: T3, dopamine D1 receptor (Sus scrofa, UniProt P50130); test: radioligand binding assay, dopamine D1 receptor, [3H]SCH 23390
T3 construct: native membrane preparations from porcine striatum; from tissue; host or cells: porcine striatum
T3 sequence (P50130 whole entry): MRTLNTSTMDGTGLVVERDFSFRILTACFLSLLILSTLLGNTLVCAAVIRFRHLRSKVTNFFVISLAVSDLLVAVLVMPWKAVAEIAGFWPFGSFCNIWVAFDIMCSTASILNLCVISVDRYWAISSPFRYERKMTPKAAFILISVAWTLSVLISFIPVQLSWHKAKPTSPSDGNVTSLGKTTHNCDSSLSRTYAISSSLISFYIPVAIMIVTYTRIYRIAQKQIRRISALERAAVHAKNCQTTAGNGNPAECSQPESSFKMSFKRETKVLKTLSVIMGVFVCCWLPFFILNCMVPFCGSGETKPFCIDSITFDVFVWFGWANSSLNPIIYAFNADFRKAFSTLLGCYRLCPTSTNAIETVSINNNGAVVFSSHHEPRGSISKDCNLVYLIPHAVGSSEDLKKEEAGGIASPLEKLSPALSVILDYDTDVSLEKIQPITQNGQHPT
Description: as §3, with “Biological activity of the compounds has been determined in radioligand binding assays. These” for “These”, “ones. In the same way, binding affinities of the test compounds to the dopamine D1 receptor were determined when using native membrane preparations from porcine striatum and the D1 selective radioligand [^3H]SCH 23390.” for “ones.”
as §2

alpha-1 = test: radioligand binding assay, adrenergic alpha-1 receptor, [3H]prazosin; settings: porcine cortical membranes, mean of two to five experiments in triplicate, read-out: Ki alpha1
Experimental: as §1, §2

human D4.4 = target: T4, human D4.4 (Homo sapiens, UniProt P21917); test: radioligand binding assay, dopamine D4.4 receptor, [3H]spiperone
T4 sequence (P21917 1-419): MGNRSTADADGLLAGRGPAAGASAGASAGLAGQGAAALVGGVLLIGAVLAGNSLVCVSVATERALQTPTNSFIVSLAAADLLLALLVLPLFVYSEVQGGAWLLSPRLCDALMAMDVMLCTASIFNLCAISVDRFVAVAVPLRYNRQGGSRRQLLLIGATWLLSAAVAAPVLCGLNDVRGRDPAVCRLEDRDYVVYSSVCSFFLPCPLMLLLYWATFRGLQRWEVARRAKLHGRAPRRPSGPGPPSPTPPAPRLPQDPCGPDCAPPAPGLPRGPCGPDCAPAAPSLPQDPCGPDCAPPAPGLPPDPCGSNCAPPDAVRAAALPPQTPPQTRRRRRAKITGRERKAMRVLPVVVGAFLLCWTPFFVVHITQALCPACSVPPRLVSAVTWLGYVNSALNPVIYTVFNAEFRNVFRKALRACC
Description: as §3, with “Biological activity of the compounds has been determined in radioligand binding assays. These” for “These”, “ones. In the same way, binding affinities of the test compounds to the dopamine D1 receptor were determined when using native membrane preparations from porcine striatum and the D1 selective radioligand [^3H]SCH 23390.” for “ones.”
as §2

[1] = porcine cortex membranes, mean of two to five experiments in triplicate, read-out: Ki 5-HT1a
[2] = porcine cortex membranes, [3H]ketanserin, mean of two to five experiments in triplicate, read-out: Ki 5-HT2
[3] = CHO cell membranes, mean of two to five experiments in triplicate, read-out: Ki D3
[4] = CHO cell membranes, [3H]spiperone; mean of two to five experiments in triplicate; read-out: Ki D2
[5] = porcine striatum membranes, mean of two to five experiments in triplicate, read-out: Ki D1
[6] = CHO cell membranes, mean of two to five experiments in triplicate, read-out: Ki D4.4

SMILES	pKi (5-HT1A; [1])	pKi (5-HT2)	pKi (5-HT2; [2])	pKi (human D3; [3])	pKi (human D2long, D2short; [4])	pKi (dopamine D1 receptor; [5])	pKi (alpha-1)	pKi (human D4.4; [6])	pKi (human D3; read-out: Ki D3, CHO cell membranes, mean of two to five experiments in triplicate)	pKi (human D2long, D2short; read-out: Ki D2; CHO cell membranes, [3H]spiperone; mean of two to five experiments in triplicate)	pKi (5-HT1A; read-out: Ki 5-HT1a, porcine cortex membranes, mean of two to five experiments in triplicate)	pKi (dopamine D1 receptor; read-out: Ki D1, porcine striatum membranes, mean of two to five experiments in triplicate)	pKi (human D4.4; read-out: Ki D4.4, CHO cell membranes, mean of two to five experiments in triplicate)
Cc1ccc(CNCC2(F)CCN(C(=O)c3ccc(F)s3)CC2)nc1 [Example E2]	> 7.30	< 5.30	–	–	–	–	–	–	–	–	–	–	–
Cc1ccc(CNCC2(F)CCN(C(=O)c3cc(Br)c(Br)s3)CC2)nc1 [Example E8, 4,5-Dibromothien-2-yl-[4-fluoro-4-[[(5-methylpyridin-2-ylmethyl)amino]methyl]-piperidin-1-yl]-methanone]	> 7.30	–	< 5.30	–	–	–	–	–	–	–	–	–	–
CSc1ccc(C(=O)N2CCC(F)(CNCc3ccc(C)cn3)CC2)s1 [Example E12, [4-Fluoro-4-[[(5-methylpyridin-2-ylmethyl)amino]methyl]piperidin-1-yl]-5-mothylthiothien-2-yl-methanone]	> 7.30	< 5.30	–	< 5.30	< 5.30	< 5.30	5.30 to 6.30	5.30 to 6.30	–	–	–	–	–
Cc1ccc(CNCC2(F)CCN(C(=O)c3ccc(-c4ccccc4)s3)CC2)nc1 [Example E13, [4-Fluoro-4-[[(5-methylpyridin-2-ylmethyl)amino]methyl]piperidin-1-yl]-5-phenylthien-2-yl-mathanone]	6.30 to 7.30	5.30 to 6.30	–	5.30 to 6.30	5.30 to 6.30	< 5.30	5.30 to 6.30	< 5.30	–	–	–	–	–
Cc1ccc(CNCC2(F)CCN(C(=O)c3ccc(-c4ccccn4)s3)CC2)nc1 [Example E14, [4-Fluoro-4-[[(5-methylpyridin-2-ylmethyl)amino]methyl]piperidin-1-yl]-5-pyridin-2-ylthien-2-yl-methanone]	6.30 to 7.30	–	5.30 to 6.30	< 5.30	< 5.30	< 5.30	5.30 to 6.30	< 5.30	–	–	–	–	–
Cc1ccc(CNCC2(F)CCN(C(=O)c3ccc(-c4cccs4)s3)CC2)nc1 [Example E15, [2,2']Bithien-5-yl-[4-fluoro-4-[[(5-methylpyridin-2-ylmethyl)amino]methyl]piperidin-1-yl]-methanone]	6.30 to 7.30	5.30 to 6.30	–	5.30 to 6.30	< 5.30	< 5.30	5.30 to 6.30	< 5.30	–	–	–	–	–
Cc1ccc(CNCC2(F)CCN(C(=O)c3ccc(-c4csc(C)n4)s3)CC2)nc1 [Example E16, [4-Fluoro-4-[[(5-methylpyridin-2-ylmethyl)amino]methyl]piperidin-1-yl]-5-(2-methylthiazol-4-yl)thien-2-yl-methanone]	6.30 to 7.30	–	< 5.30	5.30 to 6.30	< 5.30	< 5.30	5.30 to 6.30	< 5.30	–	–	–	–	–
Cc1ccc(CNCC2(F)CCN(C(=O)c3sccc3-n3cccc3)CC2)nc1 [Example E17, [4-Fluoro-4-[[(5-methylpyridin-2-ylmethyl)amino]methyl]piperidin-1-yl]-3-pyrrol-1-ylthion-2-yl-methanone]	6.30 to 7.30	< 5.30	–	< 5.30	< 5.30	< 5.30	5.30 to 6.30	5.30 to 6.30	–	–	–	–	–
Cc1ccc(CNCC2(F)CCN(C(=O)c3ccsc3Br)CC2)nc1 [Example E19, 2-Bromothien-3-yl-[4-fluoro-4-[[(5-methylpyridin-2-ylmethyl)amino]methyl]piperidin-1-yl]-methanone]	> 7.30	–	< 5.30	< 5.30	< 5.30	< 5.30	5.30 to 6.30	5.30 to 6.30	–	–	–	–	–
COc1cscc1C(=O)N1CCC(F)(CNCc2ccc(C)cn2)CC1 [Example E20, [4-Fluoro-4-[[(5-mothylpyridin-2-ylmothyl)amino]methyl]piperidin-1-yl]-4-methoxythien-3-yl-methanone]	6.30 to 7.30	< 5.30	–	< 5.30	< 5.30	< 5.30	< 5.30	5.30 to 6.30	–	–	–	–	–
COc1c(C(=O)N2CCC(F)(CNCc3ccc(C)cn3)CC2)csc1Cl [Example E21, 5-Chloro-4-methoxythien-3-yl-[4-fluoro-4-[[(5-methylpyridin-2-ylmethyl)amino]methyl]piperidin-1-yl]-methanone]	> 7.30	–	< 5.30	< 5.30	< 5.30	< 5.30	5.30 to 6.30	5.30 to 6.30	–	–	–	–	–
COc1c(C(=O)N2CCC(F)(CNCc3ccc(C)cn3)CC2)csc1Br [Example E22, 5-Bromo-4-methoxythion-3-yl-[4-fluoro-4-[[(5-methylpyridin-2-ylmethyl)amino]methyl]piperidin-1-yl]-methanone]	> 7.30	< 5.30	–	< 5.30	< 5.30	< 5.30	5.30 to 6.30	5.30 to 6.30	–	–	–	–	–
Cc1ccc(CNCC2(F)CCN(C(=O)c3cc4ccccc4s3)CC2)nc1 [Example E23, Benzo[b]thien-2-yl-[4-fluoro-4-[[(5-methyl-pyridin-2-ylmethyl)amino]methyl]-piperidin-1-yl]-methanone]	6.30 to 7.30	–	< 5.30	< 5.30	< 5.30	< 5.30	5.30 to 6.30	5.30 to 6.30	–	–	–	–	–
Cc1ccc(CNCC2(F)CCN(C(=O)c3cc(Br)c(Br)o3)CC2)nc1 [Example E32, 4,5-Dibromofuran-2-yl-[4-fluoro-4-[[(5-mothylpyridin-2-ylmethyl)amino]methyl]piperidin-1-yl]-methanone]	> 7.30	–	< 5.30	–	–	–	–	–	–	–	–	–	–
Cc1ccc(CNCC2(F)CCN(C(=O)c3coc4ccccc34)CC2)nc1 [Example E36]	–	–	–	–	–	–	–	–	< 5.30	< 5.30	> 7.30	< 5.30	5.30 to 6.30
Cc1ccc(CNCC2(F)CCN(C(=O)c3ccc[nH]3)CC2)nc1 [Example E37, [4-Fluoro-4-[[(5-methylpyridin-2-ylmethyl)amino]methyl]piperidin-1-yl]-pyrrol-2-yl-methanone]	5.30 to 6.30	–	< 5.30	–	–	–	–	–	–	–	–	–	–
Cc1ccc(CNCC2(F)CCN(C(=O)c3cc[nH]n3)CC2)nc1 [Example E38]	5.30 to 6.30	< 5.30	–	–	–	–	–	–	–	–	–	–	–

— EP2058306A1, “Heteroaryl-substituted 2-pyridinyl-methylamine derivatives” (SCHWARZ PHARMA AG, priority 2007, dated 2009)
